Values joined by “and” are separate entries in the source; they are usually repeats but may differ in a detail not shown here. Equal values may be shown once. Square brackets hold non-standard residues; d marks the D form. Peptide text beside a SMILES is read from it. * marks the point of attachment. Dolaproine = CO[C@@H]([C@@H]1CCCN1)[C@@H](C)C(=O)O; Dil = CC[C@H](C)[C@H](NC)[C@@H](CC(=O)O)OC; X1 = C[C@@H](N*)[C@@H](O)c1ccccc1; NMeV = CN[C@H](C(=O)O)C(C)C
Experiments:
[1] = Body weight, mortality and signs of overt toxicity in NCI-H526 implanted female nu/nu mice; format: in vivo, mouse; settings: for Body Weight (g), Mean: group mean; for Body Weight (g), individual animal No. 1-8: single mice; for Body Weight / Body Weight (g): individual mice, 0.191 mg/kg
Experimental: In a xenograft tumor model of human small cell lung cancer, viable NCI-H526 stage E carcinoma; variant small cell lung cancer cells (ATCC CRL-5811), were subcutaneously (SC) implanted (1×10^6 cells with matrigel (1:0.8) in 0.2 mL/mouse) into the right flank of female nu/nu mice. Tumor implanted mice were divided into five treatment groups, each group containing eight animals, and test agent administrations were initiated one day after cell implantation (denoted as Day 1).
Female nu/nu nude, aged 6-7 weeks, were obtained from BioLasco Taiwan (under Charles River Laboratories Licensee) and used. The animals were housed in individually ventilated cages (IVC, 36 Mini Isolator system). The allocation for 5 animals was 27×20×14 in cm. All animals were maintained in a hygienic environment under controlled temperature (20-24° C.) and humidity (30-70%) with 12-hour light/dark cycle. Free access to standard lab diet [MFG (Oriental Yeast Co., Ltd., Japan)] and autoclaved tap water were granted. All aspects of this work including housing, experimentation, and animal disposal were performed in general accordance with the “Guide for the Care and Use of Laboratory Animals: Eighth Edition” (National Academies Press, Washington, D.C., 2011) in our AAALAC-accredited laboratory animal facility. In addition, the animal care and use protocol was reviewed and approved by the IACUC at Eurofins Panlabs Taiwan, Ltd.
The tumor volumes, body weights, mortality, and signs of overt toxicity were monitored and recorded twice weekly for 45 days. Tumor growth inhibition was calculated as T/C (treatment/control)×100%. A T/C value≤42% compared to that of the vehicle control group was considered significant anti-tumor activity. Two-way ANOVA followed by Bonferroni test was used to ascertain the statistically significant significance of groups compared to respective vehicle control (*p<0.05).

[2] = tested on: HPAC tumor cells (ATCC CRL-2119) human pancreatic cancer; experiment: HPAC human pancreatic cancer xenograft model in male BALB/c nude mice: tumor volume, T/C, TGI; format: in vivo; settings: for Tumor Volume (mm^3), Mean: group mean; for Tumor Volume (mm^3), Mean / Tumor Volume (mm^3): QW x 4, ADC (OBI-999) and OBI-888 10 mg/kg IV, MMAE 0.191 mg/kg IP; for Tumor Volume (mm^3): individual animals
Experimental: The HPAC tumor cells (ATCC CRL-2119) were maintained in vitro as a monolayer culture in 1:1 mixture of Dulbecco's modified Eagle's medium and Ham's F12 medium containing 1.2 g/L sodium bicarbonate, 2.5 mM L-glutamine, 15 mM HEPES and 0.5 mM sodium pyruvate supplemented with 0.002 mg/mL insulin, 0.005 mg/mL transferrin, 40 ng/mL hydrocortisone, 10 ng/mL epidermal growth factor and 5% fetal bovine serum, 100 U/mL penicillin and 100 μg/mL streptomycin at 37° C. in an atmosphere of 5% CO2 in air. The tumor cells were routinely subcultured twice weekly by trypsin-EDTA treatment. The cells growing in an exponential growth phase were harvested and counted for tumor inoculation.
The endpoint was to determine the anti-tumor effects of testing compounds. Tumor size was measured twice weekly in two dimensions using a caliper, and the volume was expressed in mm^3 using the formula: V=0.5 a×b^2 where a and b are the long and short diameters of the tumor, respectively. The tumor size was then used for calculation of T/C values. The T/C value (in percent) is an indication of antitumor effectiveness; T and C are the mean volumes of the treated and control groups, respectively, on a given day. TGI was calculated for each group using the formula: TGI (%)=[1−(Ti−T0)/(Vi−V0)]×100; Ti is the average tumor volume of a treatment group on a given day, T0 is the average tumor volume of the treatment group on day 0, Vi is the average tumor volume of the vehicle control group on the same day with Ti, and V0 is the average tumor volume of the vehicle group on day 0.
Summary statistics, including mean and the standard error of the mean (SEM), are provided for the tumor volume of each group at each time point. Statistical analysis of difference in the tumor volume among the groups were conducted on the data obtained at the best therapeutic time point after the final dose (the 37th day after grouping). A one-way ANOVA was performed to compare the tumor volume among groups, and when a significant F-statistics (a ratio of treatment variance to the error variance) was obtained, comparisons between groups were carried out with Games-Howell test, otherwise they were carried out with Dunnett (2 sided) test. […] All data were analyzed using SPSS 17.0. p<0.05 was considered to be statistically significant.

[3] = Day 1, NCI-H526 xenograft, female nu/nu mice, OBI-999/OBI-888 10 mg/kg IV, MMAE 0.191 mg/kg IP, once weekly x 4
[4] = Day 4, NCI-H526 xenograft, female nu/nu mice, OBI-999/OBI-888 10 mg/kg IV, MMAE 0.191 mg/kg IP, once weekly x 4
[5] = Day 15, NCI-H526 xenograft, female nu/nu mice, OBI-999/OBI-888 10 mg/kg IV, MMAE 0.191 mg/kg IP, once weekly x 4
[6] = Day 18, NCI-H526 xenograft, female nu/nu mice, OBI-999/OBI-888 10 mg/kg IV, MMAE 0.191 mg/kg IP, once weekly x 4
[7] = Day 31, NCI-H526 xenograft, female nu/nu mice, OBI-999/OBI-888 10 mg/kg IV, MMAE 0.191 mg/kg IP, once weekly x 4
[8] = Day 39, NCI-H526 xenograft, female nu/nu mice, OBI-999/OBI-888 10 mg/kg IV, MMAE 0.191 mg/kg IP, once weekly x 4
[9] = Gr. 8, 0.191 mg/kg × 4 IP once weekly, Day 57
[10] = Gr. 8, 0.191 mg/kg × 4 IP once weekly, Day 60
[11] = Gr. 8, 0.191 mg/kg × 4 IP once weekly, Day 64
[12] = Gr. 8, 0.191 mg/kg × 4 IP once weekly, Day 67
[13] = Gr. 8, 0.191 mg/kg × 4 IP once weekly, Day 70
[14] = Gr. 8, 0.191 mg/kg × 4 IP once weekly, Day 74
[15] = Gr. 8, 0.191 mg/kg × 4 IP once weekly, Day 78
[16] = Gr. 8, 0.191 mg/kg × 4 IP once weekly, Day 81
[17] = Gr. 8, 0.191 mg/kg × 4 IP once weekly, Day 85
[18] = 0.191 mg/kg IP once weekly for four weeks, single agent, Day 37

CC[C@H](C)[C@@H]([C@@H](CC(=O)N1CCC[C@H]1[C@H](OC)[C@@H](C)C(=O)N[C@H](C)[C@@H](O)c1ccccc1)OC)N(C)C(=O)[C@@H](NC(=O)[C@@H](NC)C(C)C)C(C)C [MMAE, monomethyl auristatin E] (H-[NMeV]V[Dil][Dolaproine]-X1)
Body Weight (g), Mean [1, 3]: 23.9 g
Body Weight (g), individual animal No. 1-8 [1, 3]: 24 g (3×) and 25 g and 26 g and 23 g (2×) and 22 g
Body Weight (g), Mean [1, 4]: 23.6 g
Body Weight (g), individual animal No. 1-8 [1, 4]: 22 g and 25 g and 27 g and 21 g and 23 g (2×) and 24 g (2×)
Body Weight (g), individual animal No. 1-8 ([1]; Day 8, NCI-H526 xenograft, female nu/nu mice, OBI-999/OBI-888 10 mg/kg IV, MMAE 0.191 mg/kg IP, once weekly x 4): 24 g (2×) and 26 g and 28 g and 21 g and 25 g (2×) and 23 g
Body Weight (g), individual animal No. 1-8 ([1]; Day 11, NCI-H526 xenograft, female nu/nu mice, OBI-999/OBI-888 10 mg/kg IV, MMAE 0.191 mg/kg IP, once weekly x 4): 24 g (3×) and 28 g (2×) and 23 g (2×) and 25 g
Body Weight (g), Mean [1, 5]: 25.4 g
Body Weight (g), individual animal No. 1-8 [1, 5]: 25 g (2×) and 28 g (2×) and 24 g (2×) and 23 g and 26 g
Body Weight (g), Mean [1, 6]: 25.4 g
Body Weight (g), individual animal No. 1-8 [1, 6]: 25 g (3×) and 28 g (2×) and 24 g (3×)
Body Weight (g), individual animal No. 1-8 ([1]; Day 22, NCI-H526 xenograft, female nu/nu mice, OBI-999/OBI-888 10 mg/kg IV, MMAE 0.191 mg/kg IP, once weekly x 4): 24 g (2×) and 28 g (2×) and 25 g (4×)
Body Weight (g), individual animal No. 1-8 ([1]; Day 25, NCI-H526 xenograft, female nu/nu mice, OBI-999/OBI-888 10 mg/kg IV, MMAE 0.191 mg/kg IP, once weekly x 4): 26 g (3×) and 30 g and 29 g and 25 g (3×)
Body Weight (g), individual animal No. 1-8 ([1]; Day 29, NCI-H526 xenograft, female nu/nu mice, OBI-999/OBI-888 10 mg/kg IV, MMAE 0.191 mg/kg IP, once weekly x 4): 25 g and 32 g and 31 g and 26 g (2×) and 27 g (3×)
Body Weight (g), Mean [1, 7]: 27.8 g
Body Weight (g), individual animal No. 1-8 [1, 7]: 25 g and 32 g (2×) and 26 g (2×) and 27 g (3×)
Body Weight (g), individual animal No. 1-8 ([1]; Day 36, NCI-H526 xenograft, female nu/nu mice, OBI-999/OBI-888 10 mg/kg IV, MMAE 0.191 mg/kg IP, once weekly x 4): 26 g (2×) and 33 g (2×) and 28 g and 27 g and 29 g (2×)
Body Weight (g), Mean [1, 8]: 30.3 g
Body Weight (g), individual animal No. 1-8 [1, 8]: 27 g (3×) and 38 g and 34 g and 30 g (2×) and 29 g
Body Weight [1, 9]: 27 g (4×) and 24 g and 26 g
Body Weight (g) [1, 9]: died
Body Weight [1, 10]: 27 g (2×) and 25 g and 28 g (2×) and 26 g
Body Weight (g) [1, 10]: died
Body Weight (g), Mean [1, 11]: 26.7 g
Body Weight [1, 11]: 27 g (4×) and 24 g and 28 g
Body Weight (g) [1, 11]: died
Body Weight [1, 12]: 27 g (2×) and 25 g and 28 g (3×)
Body Weight (g) [1, 12]: died
Body Weight [1, 13]: 26 g (2×) and 25 g and 27 g (3×)
Body Weight (g) [1, 13]: died
Body Weight [1, 14]: 27 g and 24 g (2×) and 28 g (3×)
Body Weight (g) [1, 14]: died
Body Weight [1, 15]: 28 g (4×) and 25 g (2×)
Body Weight (g) [1, 15]: died
Body Weight [1, 16]: 28 g (3×) and 25 g and 27 g and 24 g
Body Weight (g) [1, 16]: died
Body Weight [1, 17]: 27 g and 25 g and 28 g (2×) and 29 g and 23 g
Body Weight (g) [1, 17]: died
Body Weight (g), Mean ([1]; Gr. 8, 0.191 mg/kg × 4 IP once weekly, Day 100): 27.9 g
antitumor activity (in words) ([2]; 0.191 mg/kg IP once weekly for four weeks, single agent): minor antitumor activity
T/C [2, 18]: 75.8%
TGI [2, 18]: 25.2%
mean tumor size [2, 18]: 1,644 mm^3
Tumor Volume (mm^3), Mean ([2]; Day 0): 85 mm^3
Tumor Volume (mm^3) ([2]; Day 0): 58 mm^3 and 53 mm^3 and 132 mm^3 and 72 mm^3 and 86 mm^3 and 116 mm^3 and 71 mm^3 and 91 mm^3
Tumor Volume (mm^3), Mean ([2]; Day 3): 114 mm^3
Tumor Volume (mm^3) ([2]; Day 3): 128 mm^3 (2×) and 76 mm^3 and 148 mm^3 and 82 mm^3 and 158 mm^3 and 57 mm^3 and 137 mm^3
Tumor Volume (mm^3), Mean ([2]; Day 7): 134 mm^3
Tumor Volume (mm^3) ([2]; Day 7): 104 mm^3 and 114 mm^3 and 177 mm^3 and 144 mm^3 and 97 mm^3 and 167 mm^3
Tumor Volume (mm^3), Mean ([2]; Day 10): 245 mm^3
Tumor Volume (mm^3) ([2]; Day 10): 444 mm^3 and 196 mm^3 and 219 mm^3 and 160 mm^3 and 207 mm^3
Tumor Volume (mm^3), Mean ([2]; Day 14): 385 mm^3
Tumor Volume (mm^3) ([2]; Day 14): 429 mm^3 and 418 mm^3 (2×) and 268 mm^3 and 390 mm^3
Tumor Volume (mm^3), Mean ([2]; Day 17): 464 mm^3
Tumor Volume (mm^3) ([2]; Day 17): 590 mm^3 and 452 mm^3 and 510 mm^3 and 321 mm^3 and 448 mm^3
Tumor Volume (mm^3), Mean ([2]; Day 21): 551 mm^3
Tumor Volume (mm^3) ([2]; Day 21): 649 mm^3 and 692 mm^3 and 581 mm^3 and 383 mm^3 and 451 mm^3
Tumor Volume (mm^3), Mean ([2]; Day 24): 672 mm^3
Tumor Volume (mm^3) ([2]; Day 24): 748 mm^3 and 705 mm^3 and 822 mm^3 and 511 mm^3 and 571 mm^3
Tumor Volume (mm^3), Mean ([2]; Day 28): 858 mm^3
Tumor Volume (mm^3) ([2]; Day 28): 1080 mm^3 and 888 mm^3 and 913 mm^3 and 623 mm^3 and 785 mm^3
Tumor Volume (mm^3), Mean ([2]; Day 31): 1194 mm^3
Tumor Volume (mm^3) ([2]; Day 31): 1174 mm^3 and 1340 mm^3 and 1439 mm^3 and 1030 mm^3 and 989 mm^3
Tumor Volume (mm^3), Mean ([2]; Day 35): 1449 mm^3
Tumor Volume (mm^3) ([2]; Day 35): 1650 mm^3 and 1656 mm^3 and 1496 mm^3 and 1236 mm^3 and 1208 mm^3
Tumor Volume (mm^3), Mean ([2]; Day 37): 1644 mm^3
Tumor Volume (mm^3) ([2]; Day 37): 1652 mm^3 and 1963 mm^3 and 1828 mm^3 and 1196 mm^3 and 1580 mm^3

From patent US11000601B2, “Conjugated biological molecules, pharmaceutical compositions and methods” (OBI Pharma, Inc., priority 2016, dated 2021)
